One compound from US20160287534A1, “METHODS FOR REVERSING FIBROSIS” (The University of Connecticut, priority 2015, published 2016) can be followed below.

Assay [1] has as its system HSCs from wild-type and Nrf2−/− mice. As to the kind of experiment: qRT-PCR of HSCs from wild-type and Nrf2−/− mice. It is filed as cell-based, mouse. The method, then: Mouse primary HSCs were isolated from C57BL/6J, nuclear erythroid 2-related factor 2 (NRF2) knockout (Nrf2−/−), and wild-type mice using a pronase/collagenase digestion method as described herein Example 1. The cells were then cultured on untreated petri dishes (BD Falcon, Franklin Lakes, N.J.), and maintained in a low-glucose DMEM medium supplemented with 10% FBS, 4 mM L-glutamine, and P/S (100 U/100 μg per mL). Human primary HSCs (Zen-Bio, Research Triangle Park, N.C.) were maintained in a low-glucose DMEM medium containing 2% FBS, 4 mM L-glutamine, 1× nonessential amino acids, 1× vitamins, and P/S (100 U/100 μg per mL). The cells were seeded on a collagen-coated plate for experiments (Sarstedt, Newton, N.C.). LX-2 cells, kindly provided by Dr. Scott Friedman at the Icahn School of Medicine at Mount Sinai (New York, N.Y.), were maintained in a low-glucose DMEM supplemented with 2% FBS, 4 mM L-glutamine, and P/S (100 U/100 μg per mL). All cells were cultured in a 37° C. humidified cell culture chamber with 5% CO2. Cell culture supplies were purchased from HyClone unless stated otherwise (Thermo Scientific, Logan, Utah).
(§1) ASTX, provided by Fuji Chemical Industry Co., Ltd. (Toyama, Japan), was prepared in DMSO as described herein in Example 1. After plated on an uncoated dish, mouse qHSCs were incubated with 25 μM ASTX during activation. aHSCs, which were prepared by culturing qHSCs on an uncoated dish for 6 d, were incubated with 25 μM ASTX for 2 or 4 more days. Also, cells were incubated with 3 μM tert-butyl hydrogen peroxide (tBHP, Thermo Scientific) for 12 h with or without 25 μM ASTX. Medium containing ASTX was replenished daily and DMSO vehicle control was always run in parallel. Human primary HSC were treated with 25 μM ASTX for 24 h, after which they were activated by 3 ng/mL of TGFβ1 (Peprotech, Rocky Hill, N.J.) for 24 h.
(§2) Total RNA extraction, cDNA synthesis, and qRT-PCR were conducted using a Bio-Rad CFX96 Real-Time system (Bio-Rad, Hercules, Calif.) as previously described (Id.). Primer sequences will be available upon request.

The subject of assay [2] is HDAC9 and myocyte enhancer factor 2 (MEF2). As to the kind of experiment: HDAC and MEF2 mRNA and protein expression in mouse primary HSCs. The class given is cell-based. The method, then:
as §1, §2
Whole cell lysates and human tissue protein extracts were prepared and Western blot analysis were performed as described (Id.) using antibodies against α-SMA (Sigma, St. Louis, Mo.), HDAC3 (Santa Cruz Biotechnology, Santa Cruz, Calif.), HDAC4 (Santa Cruz Biotechnology), HDAC9 (Abcam, Cambridge, Mass.; Novus Biologicals, Littleton, Colo.), Col1A1 (Sigma). β-tubulin (Santa Cruz) or glyceraldehyde 3-phosphate dehydrogenase (GAPDH) (Santa Cruz) was used as a loading control.

Assay [3] has as its system α-SMA. As to the kind of experiment: Western blot and immunostaining of α-SMA protein in LX-2 cells. The class given is cell-based. The conditions noted are these: 25 μM ASTX (FIGS. 3B, 3C). Here is the method:
LX-2 cells were kindly provided by Dr. Scott Friedman at the Icahn School of Medicine at Mount Sinai (New York, N.Y.). Cells were maintained in low-glucose DMEM containing 2% FBS, 4 mM 1-glutamine, 100 U/mL penicillin and 100 μg/mL streptomycin in a 37° C. humidified cell culture chamber providing 5% CO2. LX-2 cells were incubated with varying concentrations of ASTX for 12 or 24 h, and subsequently activated by 2 ng/mL of TGFβ1 (Peprotech, Rocky Hill, N.J.) for 1 to 24 h. Primary mouse HSCs were plated on untreated petri dishes (BD Falcon, Franklin Lakes, N.J.) and maintained in low-glucose DMEM supplemented with 10% FBS, 4 mM L-glutamine, 100 U/mL penicillin and 100 μg/mL streptomycin in a 37° C. humidified cell culture chamber under 5% CO2. ASTX (25 μM) was added at day 2 or day 4 after plating until day 6 with daily media change. […]
Whole cell lysates were prepared to conduct Western blot as we previously described (Id.) using antibodies against α-SMA (Sigma, St. Louis, Mo.), Smad3 (Millipore, Billerica, Mass.), and phospho-Smad3 (Cell Signaling, Danvers, Mass.). β-Tubulin (Santa Cruz Biotechnology, Santa Cruz, Calif.) or β-actin (Sigma, St. Louis, Mo.) was used as a loading control. […] Blots were developed using Westpico horseradish peroxidase chemiluminescence (Pierce, Rockford, Ill.) and images were analyzed using a Chemidoc XRS+system (Bio-Rad) and Image Lab software (Bio-Rad). […]
(In general: In western blotting, separated proteins are transferred to a membrane and probed.)

The mark [4] stands for this setting: ASTX added at day 4 for 2 d during HSC activation (FIG. 10D).

As to `CC1=C(/C=C/C(C)=C/C=C/C(C)=C/C=C/C=C(C)/C=C/C=C(C)/C=C/C2=C(C)C(=O)C(O)CC2(C)C)C(C)(C)CC(O)C1=O` (centres unmarked) [ASTX, astaxanthin], the “α-SMA and Col1A1 mRNA” value in assay [1] (both wild-type and Nrf2−/− HSCs, activated 6 d with ASTX (FIG. 8C)) was “able to decrease”. For the same compound, the “tBHP-increased α-SMA expression” value in assay [1] (both wild-type and Nrf2−/− HSCs, tBHP at day 6 for 12 h (FIG. 8D)) is given as “attenuated”. The NRF2 expression entry in assay [1] (wild-type HSCs (FIG. 8D)) is given as “significantly decreased”. Besides, in assay [2] (setting [4]), the HDAC2 protein level entry is reported as “minimally altered”; the “decrease of HDAC3 and 4 protein levels” value is recorded as roughly 50%; the “decrease of HDAC9 protein level” value was roughly 70%. For the same compound, the “mRNA levels of HDAC9” value in assay [2] (aHSCs incubated with ASTX for 2 d (FIG. 10F)) is on record as “significantly repressed”. Also, in assay [2] (aHSCs incubated with ASTX for 2 d (FIG. 10G)), the “mRNA levels of MEF2 isoforms” value is given as “significantly repressed”. Also, the “induction of MEF2a, 2c and 2d mRNA” value in assay [2] (during HSC activation, ASTX for 2 d from day 4 (FIG. 10E)) is recorded as “significantly attenuated”. Also, the “HDAC9 mRNA induction” value in assay [2] (during activation of qHSCs (FIG. 10B)) is “significantly decreased”. In assay [3], the “protein levels of α-SMA induced by TGFβ1” value is reported as “significantly decreased”.
